Measurements taken from PubChem BioAssay (NCI).
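48-hour exposure; five concentrations; linearly interpolated endpoints. TGI denotes the concentration required for complete inhibition of growth.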

How the values were obtained:
Assay in all cases: DTP human tumour cell line panel, 48 h
[1] = system: K-562 leukemia
[2] = system: SNB-19 CNS
[3] = system: UO-31 renal
[4] = system: SF-539 CNS
[5] = system: BT-549 breast
[6] = system: NCI/ADR-RES ovarian
[7] = system: UACC-257 melanoma
[8] = system: HCT-116 colon
[9] = system: SF-268 CNS
[10] = system: LOX IMVI melanoma
[11] = system: CCRF-CEM leukemia
[12] = system: MDA-MB-231 breast
[13] = system: NCI-H23 lung
[14] = system: OVCAR-3 ovarian
[15] = system: ACHN renal
[16] = system: OVCAR-8 ovarian
[17] = system: HS 578T breast
[18] = system: DU-145 prostate
[19] = system: OVCAR-5 ovarian
[20] = system: MALME-3M melanoma

| SMILES | TGI [1] | TGI [2] | TGI [3] | TGI [4] | TGI [5] | TGI [6] | TGI [7] | TGI [8] | TGI [9] | TGI [10] | TGI [11] | TGI [12] | TGI [13] | TGI [14] | TGI [15] | TGI [16] | TGI [17] | TGI [18] | TGI [19] | TGI [20] |
| --- | --- | --- | --- | --- | --- | --- | --- | --- | --- | --- | --- | --- | --- | --- | --- | --- | --- | --- | --- | --- |
| N#Cc1ccc(-c2nc3c(N)ncnc3o2)cc1 | > 100 µM | > 100 µM | > 100 µM | > 100 µM | > 100 µM | > 100 µM | > 100 µM | > 100 µM | > 100 µM | > 100 µM | > 100 µM | > 100 µM | > 100 µM | > 100 µM | > 100 µM | > 100 µM | > 100 µM | > 100 µM | > 100 µM | – |
| COc1cc2c(cc1OCCCCCCCCCCN1C(=O)c3cccc4cccc(c34)C1=O)N=C[C@@H]1CCCN1C2=O | 74.7 µM | 57.6 µM | 28.5 µM | 3.21 µM | 20.9 µM | 14.4 µM | 37.3 µM | > 100 µM | 37.3 µM | 4.99 µM | – | 20.4 µM | 22.4 µM | 20.3 µM | 30 µM | 24.7 µM | 75.3 µM | 34.4 µM | 61.2 µM | 34 µM |
| Cc1ccc(C2(O)CSC(=NC34CC5CC(CC(C5)C3)C4)N2C(P(=O)(O)O)P(=O)(O)O)cc1 (stereo not drawn) | > 100 µM | > 100 µM | > 100 µM | > 100 µM | > 100 µM | 68.3 µM | – | 67.5 µM | > 100 µM | – | – | > 100 µM | > 100 µM | > 100 µM | > 100 µM | > 100 µM | > 100 µM | > 100 µM | > 100 µM | > 100 µM |
| CC12C=CC(C)(C3C(=O)C4C(C(=O)C31)C1(C)C=CC4(C)S1=O)S2=O (stereo not drawn) | – | > 100 µM | > 100 µM | > 100 µM | > 100 µM | > 100 µM | > 100 µM | – | > 100 µM | > 100 µM | – | > 100 µM | > 100 µM | > 100 µM | > 100 µM | > 100 µM | > 100 µM | > 100 µM | > 100 µM | > 100 µM |
| Cc1c(-c2ccccc2)cc(O)c2nc3ccccc3n12 | > 100 µM | > 100 µM | > 100 µM | > 100 µM | > 100 µM | > 100 µM | > 100 µM | – | – | > 100 µM | > 100 µM | > 100 µM | > 100 µM | > 100 µM | > 100 µM | > 100 µM | > 100 µM | > 100 µM | > 100 µM | > 100 µM |
| O=C(/C=C/c1ccc(O)c(O)c1)OCC(OC(=O)/C=C/c1ccc(O)c(O)c1)C(=O)O (stereo not drawn) | > 100 µM | > 100 µM | > 100 µM | > 100 µM | > 100 µM | > 100 µM | > 100 µM | > 100 µM | > 100 µM | > 100 µM | > 100 µM | > 100 µM | > 100 µM | > 100 µM | > 100 µM | > 100 µM | > 100 µM | > 100 µM | > 100 µM | – |
| CCOC(=O)c1ccc(N=C/C=C(\Nc2ccc(C(=O)OCC)cc2)C23CC4CC(CC(C4)C2)C3)cc1 | > 100 µM | > 100 µM | > 100 µM | > 100 µM | > 100 µM | > 100 µM | > 100 µM | > 100 µM | > 100 µM | > 100 µM | – | > 100 µM | > 100 µM | > 100 µM | > 100 µM | > 100 µM | > 100 µM | > 100 µM | > 100 µM | > 100 µM |
| NC(=Nc1ccccc1Cl)c1ccccc1N | > 100 µM | > 100 µM | > 100 µM | – | > 100 µM | > 100 µM | > 100 µM | > 100 µM | > 100 µM | > 100 µM | > 100 µM | > 100 µM | > 100 µM | > 100 µM | > 100 µM | > 100 µM | > 100 µM | > 100 µM | > 100 µM | > 100 µM |
| CCCCC1(NN=C2CCCCC2)C(=O)N(c2ccccc2)N(c2ccccc2)C1=O | 64.9 µM | > 100 µM | > 100 µM | > 100 µM | > 100 µM | > 100 µM | > 100 µM | > 100 µM | > 100 µM | – | 40.7 µM | > 100 µM | > 100 µM | > 100 µM | > 100 µM | > 100 µM | > 100 µM | > 100 µM | – | – |
| CC(C)CCNC(=O)c1ccc(CNC(=O)/C=C/c2cccc(Oc3ccccc3)c2)cc1 | > 100 µM | > 100 µM | > 100 µM | > 100 µM | > 100 µM | > 100 µM | > 100 µM | > 100 µM | > 100 µM | > 100 µM | – | 77.5 µM | > 100 µM | 93 µM | > 100 µM | > 100 µM | > 100 µM | > 100 µM | > 100 µM | > 100 µM |
